Experimental data: the supplement of paper PMC10307832

Key:
Test in all cases: relative viability (nuclei count vs DMSO), 5 days (fraction); higher = more cells survive
Tozasertib + Linsitinib = compound: Cc1cc(Nc2cc(N3CCN(C)CC3)nc(Sc3ccc(NC(=O)C4CC4)cc3)n2)n[nH]1 [Tozasertib] + C[C@]1(O)C[C@@H](c2nc(-c3ccc4ccc(-c5ccccc5)nc4c3)c3c(N)nccn32)C1 [Linsitinib] (partner 1 µM)
Method in brief: (§1)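 Five library-drug doses in √10 steps were combined with a fixed anchor-drug dose, or a single drug was given alone, by pin tool to lung cancer cell lines in 1536-well plates the day after seeding. Nuclei were stained and counted after 5 days. Relative viability is the nuclei count in treated wells over that in vehicle wells, taken as the median of duplicate plates.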

Tozasertib + Pictilisib = compound: Cc1cc(Nc2cc(N3CCN(C)CC3)nc(Sc3ccc(NC(=O)C4CC4)cc3)n2)n[nH]1 [Tozasertib] + CS(=O)(=O)N1CCN(Cc2cc3nc(-c4cccc5[nH]ncc45)nc(N4CCOCC4)c3s2)CC1 [Pictilisib] (partner 1 µM)
Method in brief: as §1

Tozasertib + Foretinib = compound: Cc1cc(Nc2cc(N3CCN(C)CC3)nc(Sc3ccc(NC(=O)C4CC4)cc3)n2)n[nH]1 [Tozasertib] + COc1cc2c(Oc3ccc(NC(=O)C4(C(=O)Nc5ccc(F)cc5)CC4)cc3F)ccnc2cc1OCCCN1CCOCC1 [Foretinib] (partner 0.25 µM)
Method in brief: as §1

Tozasertib = compound: Cc1cc(Nc2cc(N3CCN(C)CC3)nc(Sc3ccc(NC(=O)C4CC4)cc3)n2)n[nH]1 [Tozasertib]
Method in brief: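 Only plates meeting two conditions passed: control CV below 25% and at least one doubling. Lung cancer cell lines, kept overnight at 37 °C in 1536-well plates, were pinned with five library-drug doses (not always all listed) √10 apart on vehicle-anchored plates and grown 5 days without medium change. A one-step fix, permeabilisation and Hoechst stain preceded 4× imaging and MetaXpress nuclear counting. Viability equals treated-well nuclei divided by vehicle-well nuclei, as the median over plates.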

| Cell Line | relative viability (Tozasertib + Linsitinib; first compound 0.004 µM) | relative viability (Tozasertib + Linsitinib; first compound 0.01265 µM) | relative viability (Tozasertib + Linsitinib; first compound 0.04 µM) | relative viability (Tozasertib + Pictilisib; first compound 0.004 µM) | relative viability (Tozasertib + Pictilisib; first compound 0.01265 µM) | relative viability (Tozasertib + Pictilisib; first compound 0.04 µM) | relative viability (Tozasertib + Foretinib; first compound 0.004 µM) | relative viability (Tozasertib + Foretinib; first compound 0.01265 µM) | relative viability (Tozasertib + Foretinib; first compound 0.04 µM) | relative viability (Tozasertib + Foretinib; first compound 0.1265 µM) | relative viability (Tozasertib; 0.004 µM) | relative viability (Tozasertib; 0.04 µM) | relative viability (Tozasertib; 0.1 µM, anchor plate) | relative viability (Tozasertib; 0.1265 µM) | relative viability (Tozasertib + Linsitinib; first compound 0.1265 µM) | relative viability (Tozasertib + Pictilisib; first compound 0.1265 µM) | relative viability (Tozasertib; 0.01265 µM) |
| --- | --- | --- | --- | --- | --- | --- | --- | --- | --- | --- | --- | --- | --- | --- | --- | --- | --- |
| EPLC-272H | 1.13 | 1.18 | 1.12 | 0.442 | 0.31 | 0.326 | 0.643 | 0.595 | 0.604 | 0.496 | 0.981 | 1 | 0.296 | 0.55 | – | – | – |
| UMC-11 | 1.1 | 1.03 | 1.06 | 1.09 | 0.788 | 0.864 | 0.985 | 0.995 | 0.788 | 0.186 | 1.03 | 0.966 | 0.206 | 0.342 | 0.173 | 0.463 | 0.898 |
| NCI-H1793 | 0.909 | 0.764 | 0.853 | 0.396 | 0.357 | 0.351 | – | 0.56 | 0.596 | 0.389 | 1.03 | 1.01 | 0.384 | 0.892 | 0.625 | 0.261 | 0.76 |
| NCI-H2405 | 1.03 | 0.944 | – | 0.386 | 0.478 | 0.479 | 1.09 | 1 | 1.01 | 0.974 | 1.04 | 0.992 | 0.731 | 0.885 | 0.962 | 0.396 | 1.01 |
| NCI-H661 | 0.61 | 0.564 | 0.497 | 0.461 | 0.394 | 0.404 | 1.09 | 0.982 | 1.03 | 0.357 | 0.976 | 1 | 0.367 | 0.68 | 0.402 | 0.349 | 0.94 |
| NCI-H1993 | 0.8 | 0.668 | 0.649 | – | 0.759 | – | 0.944 | 0.732 | 0.848 | 0.726 | 1.03 | 0.939 | 0.58 | 0.676 | 0.616 | 0.632 | 0.782 |
| NCI-H322M | 0.893 | 0.998 | 0.923 | 0.485 | 0.474 | 0.576 | – | 0.941 | 1.02 | 0.47 | 0.92 | 1.02 | 0.493 | 0.682 | 0.848 | 0.419 | – |
| NCI-H1651 | 1.19 | 0.899 | 0.972 | 0.655 | 0.62 | 0.634 | 0.694 | 0.773 | 0.856 | 0.87 | 1.02 | 0.984 | 0.698 | 0.922 | 0.923 | 0.377 | 0.949 |
| LCLC-103H | 1.07 | 1.03 | 0.987 | 0.694 | 0.568 | 0.634 | 0.81 | 0.78 | 0.713 | 0.416 | 1.06 | 1.02 | 0.499 | 0.952 | 1.34 | 0.498 | 1.06 |
| HCC-44 | 0.653 | 0.606 | 0.691 | 0.596 | 0.603 | 0.67 | – | – | – | – | 1.02 | 1.01 | 0.974 | – | 0.546 | 0.409 | 0.903 |
| NCI-H2085 | 0.966 | 0.865 | 0.949 | 0.454 | 0.421 | 0.486 | 1.03 | 0.767 | 1.03 | 0.703 | 1.02 | 0.984 | 0.84 | 0.915 | 0.649 | 0.266 | 0.982 |
| RERF-LC-KJ | 0.876 | 0.861 | 0.907 | 0.503 | 0.594 | 0.597 | 0.795 | 0.831 | 0.957 | – | 0.942 | 1.04 | 0.491 | 0.895 | 0.777 | 0.456 | 0.914 |
| NCI-H1355 | 0.751 | 0.816 | 0.912 | 0.426 | 0.461 | 0.52 | 0.942 | 0.926 | 0.901 | 0.853 | 1.03 | 1.05 | 0.585 | 0.817 | 0.722 | 0.272 | 0.956 |
| NCI-H522 | – | – | – | – | – | – | – | – | – | – | 1.12 | 1.05 | 0.565 | 0.671 | – | – | 1 |
| LU99A | 0.655 | 0.448 | 0.412 | 0.338 | 0.339 | 0.3 | 0.798 | 0.629 | 0.796 | 0.487 | 1.05 | 0.824 | 0.282 | 0.594 | 0.292 | 0.216 | 0.904 |
| ChaGo-K-1 | – | – | – | 0.849 | 0.676 | 0.771 | 0.939 | 0.874 | 0.813 | 0.249 | 1.06 | 1 | 0.233 | 0.858 | – | 0.256 | 1 |
| NCI-H1650 | – | – | – | 0.589 | 0.557 | 0.639 | 1.26 | 1.28 | 1.1 | 0.879 | 1.03 | 1.09 | 0.418 | 0.502 | – | 0.204 | 0.918 |
| NCI-H2170 | – | – | – | 0.3 | 0.327 | 0.295 | 0.985 | 0.591 | – | 0.907 | 0.964 | 0.954 | 0.755 | 0.893 | – | 0.276 | 1.01 |
| NCI-H1792 | 0.461 | 0.398 | 0.528 | 0.297 | 0.203 | 0.241 | – | – | – | – | 1.16 | 1.01 | – | 0.613 | 0.331 | 0.167 | 0.781 |
| NCI-H2342 | – | – | – | – | – | – | 0.949 | 0.997 | 1.02 | 0.908 | 0.997 | – | 0.52 | 0.909 | – | – | – |
